What was measured:
[1] = test system: healthy females; assay: 15 Words Test; type: in vivo, human; details: after 4 daily doses; for 15 words direct / 15 words recall: number of recalled words; for 15 words direct: total in 5 consecutive trials; for 15 words recognition: number of words
Protocol: (§1) 2 healthy females performed a number of neuropsychological tests at baseline, after taking 40 mg/day of tamoxifen for 4 consecutive days, and after taking 40 mg/day of tamoxifen combined with 0.5 mg/day of sublingual testosterone for 4 consecutive days, to investigate any beneficial effects of sublingual testosterone in women taking a selective estrogen-receptor modulator (SERM).
The 15 Words Test (15WT) is developed to investigate episodic memory problems in patients with brain disorders. It is the Dutch version of the Auditory Verbal Learning Test (REF?). This test consists of 15 words, which have to be learned during five trials. After every trial the respondent is asked to recall as many words as possible. After a distraction period of 20 minutes, the respondent is, again asked to name the words they have learned before.

[2] = test system: healthy females; assay: Rapid Visual Information Processing (RVP); type: in vivo, human; details: 2 healthy females; after 4 daily doses versus baseline
Description: A white box appears in the centre of the computer screen, inside which digits, from 2 to 9, appear in a pseudo-random order, at the rate of 100 digits per minute.
The nine RVP outcome measures cover latency, probabilities and sensitivity.

[3] = test system: healthy females; assay: Neuropsychological tests, proof of concept study: conclusions per neuropsychological domain; type: in vivo, human; details: for Effect regarding executive functioning: 1 subject (trail making B), an indication; for Effect regarding information processing speed: both subjects, multiple indications
Protocol: as §1
In this proof of concept study, 2 healthy females performed a number of neuropsychological tests to investigate any beneficial effects of sublingual testosterone in women taking a SERM. The following neuropsychological domains were investigated (tasks are in brackets, see below for more information): • Information processing speed (Big/Little Circle, Choice Reaction Time, Match to Sample Visual Search, Trail making task A, 5-Choice Reaction Time) • Executive functioning (Intra-Extra Dimensional Set Shift, Trail making task B) • Reaction speed (Single Choice Reaction Time) • Working memory (Rapid Visual Information Processing) • Verbal memory (15-words task)
If tamoxifen in these women were to have detrimental effects on their cognitive functioning, a decrease in speed and/or accuracy on either of these tasks was expected.

[4] = test system: healthy females; details: 2 healthy females; after 4 daily doses versus baseline
Description: Intra-Extra Dimensional Set Shift (IED)
Two artificial dimensions are used in the test: • color-filled shapes • white lines
Simple stimuli are made up of just one of these dimensions, whereas compound stimuli are made up of both, namely white lines overlying colour-filled shapes. The participant starts by seeing two simple colour-filled shapes, and must learn which one is correct by touching it.
Feedback teaches the participant which stimulus is correct, and after six correct responses, the stimuli and/or rules are changed. These shifts are initially intra-dimensional (e.g. colour filled shapes remain the only relevant dimension), then later extra-dimensional (white lines become the only relevant dimension). Participants progress through the test by satisfying a set criterion of learning at each stage (six consecutive correct responses). If at any stage the participant fails to reach this criterion after 50 trials, the test terminates. […]

Row | Compound | 15 words direct ([1]; Subject 1) | 15 words recall ([1]; Subject 1) | 15 words recognition ([1]; Subject 1) | 15 words direct ([1]; Subject 2) | 15 words recall ([1]; Subject 2) | 15 words recognition ([1]; Subject 2) | RVP task result [2] | Effect regarding executive functioning [3] | Effect regarding information processing speed [3] | IED task result [4] | Effect regarding verbal memory ([3]; 1 subject (15 words recall))
1 | CC/C(=C(\c1ccccc1)c1ccc(OCCN(C)C)cc1)c1ccccc1 [TAMOXIFEN, (Z)-2-[4-(1,2-diphenylbut-1-enyl)phenoxy]-N,N-dimethyl-ethanamine] | 51 | 6 | 27 | 43 | 9 | 28 | no effects | deteriorating effects | deteriorating effects | no effects | 
2 | C[C@]12CC[C@H]3[C@@H](CCC4=CC(=O)CC[C@@]43C)[C@@H]1CC[C@@H]2O [testosterone] |  |  |  |  |  |  |  | positive effects | positive effects |  | positive effect
